The values below come from US5171882A, “Leukotriene antagonists” (Eli Lilly and Company, priority 1990, dated 1992).

What is called Kb is the equilibrium dissociation constant of an antagonist, usually derived from a functional assay. As usually defined, the inhibition is the percentage by which the read-out fell short of the control.

One test has as its target T1, LTD4 receptors (Cavia porcellus, UniProt Q2NNR5).
T1 construct: A section of terminal ileum was removed, the lumen cleaned, and the tissue divided into 2.5 cm segments; from tissue; host or cells: ileum and trachea of guinea pig (ileum: male Hartley)
T1 sequence (Q2NNR5 1-340): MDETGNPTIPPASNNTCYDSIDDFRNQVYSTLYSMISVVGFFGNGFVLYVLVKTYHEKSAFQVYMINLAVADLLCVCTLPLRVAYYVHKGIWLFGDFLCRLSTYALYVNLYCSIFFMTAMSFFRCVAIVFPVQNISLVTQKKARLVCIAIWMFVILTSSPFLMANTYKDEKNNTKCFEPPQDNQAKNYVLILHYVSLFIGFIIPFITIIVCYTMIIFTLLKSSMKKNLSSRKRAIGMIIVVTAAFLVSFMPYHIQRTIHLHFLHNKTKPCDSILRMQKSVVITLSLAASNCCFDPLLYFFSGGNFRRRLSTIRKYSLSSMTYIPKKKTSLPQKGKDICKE
Briefly: Antagonism of LTD4 (guinea pig ileum and trachea, pA2). As to conditions: *Estimated; negative log of KB; antagonist 30 minute incubation. As to the method:
Male, Hartley guinea pigs weighing 200-450 grams were killed by decapitation. A section of terminal ileum was removed, the lumen cleaned, and the tissue divided into 2.5 cm segments. The ilea were mounted in 10 ml tissue baths containing Krebs-bicarbonate solution of the following composition in mmoles/liter: KCl, 4.6; CaCl2 ·2H2 O, 1.2; KH2 PO4, 1.2; MgSO4 ·7H2O, 1.2; NaCl, 118.2; NaHCO3, 24.8; and dextrose, 10.0. The bath fluid was maintained at 37° C. and aerated with 95 percent oxygen and 5 percent CO2 In addition, the buffer contained 1×10^-6 M atropine to reduce ileal spontaneous activity. Isometric measurements were made with a Grass FT03C. force-displacement transducer and recorded on a Grass polygraph as change in grams of force. A passive force of 0.5 g was applied to the tissues. After an appropriate equilibration period, single submaximal control responses to pure LTD4 were obtained. Following a five minute exposure of the ileum to an experimental drug, the control concentration of LTD4 was added to the tissue bath. The response of the ileum to LTD4 in the presence of the drug was compared to the response in the absence of the drug.
A more detailed analysis of LTD4 antagonism was then made. In these experiments, cumulative concentration-response curves were obtained to LTD4 in guinea pig ileum and trachea. This was followed by a 30 minute incubation with various concentrations of the experimental drug. The concentration response curve to LTD4 was then repeated in the presence of the antagonist. Only one concentration of antagonist was used on a single tissue. KB values were calculated by the method of Furchgott [Ann. N.Y. Acad. Sci., 139, 553 (1967)] using the following equation. [formula]
Dose ratio refers to the concentration of agonist required to elicit 50 percent of the maximal response ED50) in the presence of the antagonist divided by the ED50 in the absence of the antagonist.

In test [1] the test system is LTB4 induced cell aggregation (neutrophils). Put plainly: LTB4 Induced Aggregation Assay (neutrophils). The following applies: Cavia porcellus, Neutrophil. The format is cell-based, guinea pig. As for the experimental part: Neutrophils were elicited by intraperitoneally injecting 20 ml of Dulbecco's calcium and magnesium deficient phosphate buffered saline (PBS) containing 2% oyster glycogen into each of two male Hartley guinea pigs. Eighteen hours later, cells accumulating in the peritoneal cavity were harvested by washing the peritoneum with approximately 100 ml of PBS containing 10 units/ml of heparin. The cells were centrifuged at 200 g for 8 min. and the supernatant fluid discarded. Erythrocytes present in the pellet were lyzed by vigorous agitation of the cells in 9 ml of ice-cold distilled water for approximately 30 seconds. Physiological osmolarity was restored by adding 1.5 ml of 0.6 M KCl. Twelve milliliters of PBS were added and the resuspended cells centrifuged at 200 g for 8 min. at 4°. The pellet was resuspended in 5 ml PBS. The cell concentration was determined and additional buffer added to make the concentration […]; cells per ml.
The aggregation assay was carried out by measuring the amount of LTB4 induced cell aggregation with a Payton single channel aggregometer, model 300B. The apparatus was calibrated by placing a cuvette containing the cell suspension in it and adjusting the zero knob so that the recorder pen rested at 1 mV. A cuvette containing 20% less cells was then inserted into the aggregometer and the output knob adjusted so that the recorder pen rested at 9 mV. With these settings an 8 mV change causes the recorder pen to move 200 mm. When conducting an assay, 0.5 ml of cell suspension (5×10^6 cells) was added to each cuvette. Five microliters of a solution of test compound were then added. Most compounds were initially dissolved in DMSO at 1×10^-2 M and then diluted appropriately with PBS so that the test compound concentration was 1×10^-5 to 1×10^-7 M and the test DMSO concentration was 0.1% or less. A few of the more water insoluble compounds were first dissolved in DMSO at 1 to 6×10^-3 M and then diluted appropriately with PBS. The test concentration of DMSO was never higher than 1%. After a 2 minute equilibration period of cells and test compound, 5 μl of a solution containing CaCl2 (100 mM) and MgCl2 (50 mM) were added. One minute later, 5 μ l of PBS containing LTB4 (3×10^-7 M) were added. The change occurring in the amount of light transmitted during the subsequent minute was measured. […] During a typical experiment, several measurements of the amount of aggregation induced by LTB4 were made and an average value determined. The effect of a test compound on this aggregation was determined by the following formula: [formula]

The target in test [2] is T2, specific receptor on the membrane of human neutrophils (leukotriene B4) (Homo sapiens, UniProt Q15722).
T2 construct: Freshly-prepared buffy coat layers from two individuals were obtained from a local blood donor center; endogenous in cells; host or cells: intact human peripheral blood neutrophils from buffy coats of two donors
Put plainly: Inhibition of Binding of ^3 H-LTB4 to Peripheral Human Neutrophils. The following applies: read-out: LTB4 Binding Inhibition.

T2 sequence (Q15722 whole entry): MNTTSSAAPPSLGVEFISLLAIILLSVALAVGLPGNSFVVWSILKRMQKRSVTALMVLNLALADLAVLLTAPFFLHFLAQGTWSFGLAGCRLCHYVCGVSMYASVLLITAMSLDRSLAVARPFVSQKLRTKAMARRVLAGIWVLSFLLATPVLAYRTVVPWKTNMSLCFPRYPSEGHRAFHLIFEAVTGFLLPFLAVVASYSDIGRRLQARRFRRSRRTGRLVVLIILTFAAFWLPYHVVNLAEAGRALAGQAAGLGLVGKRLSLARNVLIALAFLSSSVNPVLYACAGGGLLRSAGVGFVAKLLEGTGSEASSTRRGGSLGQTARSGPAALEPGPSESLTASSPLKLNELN

As for `CCCCCCCCCCOc1ccc(C(=NO)c2cccc(C(=O)O)c2)cc1CCC(=O)O` [Example 52, 5-[(3-Carboxyphenyl)(hydroxyimino)methyl]-2-(decyloxy)benzenepropanoic acid], on LTD4 receptors, the Kb was 661 nM. Besides, the inhibition at 10 µM in test [1] (drug concentration 10^-5 M) came out at 94%; in test [2], 92%. The inhibition at 1 µM in test [1] (drug concentration 10^-6 M) was found to be 89%; in test [2] (drug concentration 10^-6 M, 0.1-0.2 nM ^3 H-LTB4, 10 minutes at 4° C) it was 61%. For the same compound, the inhibition at 0.1 µM in test [1] (drug concentration 10^-7 M) worked out at 38%; in test [2] (drug concentration 10^-7 M, 0.1-0.2 nM ^3 H-LTB4, 10 minutes at 4° C) it was 17%.
